Our source for the Ambit profiling values is patent US12157741B2, “Macrocyclic inhibitors of DYRK1A” (DANA-FARBER CANCER INSTITUTE, INC., priority 2018, dated 2024).

In assay [1] the target is various enzymes (Homo sapiens, UniProt P00533, T790M).
Procedure: (§1) Ambit profiling from Eurofins (formerly Discoverx) was conducted in accordance with the manufacturer's instructions.
For assay [2], the target named is various enzymes (Homo sapiens, UniProt P00533, DEL752-759). The conditions noted are these: EGFR(S752-I759del); 1 uM.
Procedure: as §1
Assay [3] concerns the target various enzymes (Homo sapiens, UniProt P00533, G719S).
Procedure: as §1
Assay [4] deals with various enzymes (Homo sapiens, UniProt P45984). The conditions noted are these: JNK2; 1 uM.
Sequence of various enzymes (Homo sapiens, UniProt P45984) (P45984 whole entry): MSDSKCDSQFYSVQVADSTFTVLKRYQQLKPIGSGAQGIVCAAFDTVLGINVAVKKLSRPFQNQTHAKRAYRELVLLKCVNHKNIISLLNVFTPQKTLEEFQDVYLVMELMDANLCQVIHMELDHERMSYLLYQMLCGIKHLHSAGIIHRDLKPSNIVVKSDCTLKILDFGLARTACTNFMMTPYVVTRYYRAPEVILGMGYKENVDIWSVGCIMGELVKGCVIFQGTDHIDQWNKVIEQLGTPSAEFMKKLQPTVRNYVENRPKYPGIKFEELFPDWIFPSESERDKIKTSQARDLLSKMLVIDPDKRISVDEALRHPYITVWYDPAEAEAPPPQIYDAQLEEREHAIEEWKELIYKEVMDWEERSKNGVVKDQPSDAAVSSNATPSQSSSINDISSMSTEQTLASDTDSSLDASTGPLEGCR
Procedure: as §1
Assay [5] deals with T1, various enzymes (Homo sapiens, UniProt Q13873).
T1 sequence (Q13873 27-1038): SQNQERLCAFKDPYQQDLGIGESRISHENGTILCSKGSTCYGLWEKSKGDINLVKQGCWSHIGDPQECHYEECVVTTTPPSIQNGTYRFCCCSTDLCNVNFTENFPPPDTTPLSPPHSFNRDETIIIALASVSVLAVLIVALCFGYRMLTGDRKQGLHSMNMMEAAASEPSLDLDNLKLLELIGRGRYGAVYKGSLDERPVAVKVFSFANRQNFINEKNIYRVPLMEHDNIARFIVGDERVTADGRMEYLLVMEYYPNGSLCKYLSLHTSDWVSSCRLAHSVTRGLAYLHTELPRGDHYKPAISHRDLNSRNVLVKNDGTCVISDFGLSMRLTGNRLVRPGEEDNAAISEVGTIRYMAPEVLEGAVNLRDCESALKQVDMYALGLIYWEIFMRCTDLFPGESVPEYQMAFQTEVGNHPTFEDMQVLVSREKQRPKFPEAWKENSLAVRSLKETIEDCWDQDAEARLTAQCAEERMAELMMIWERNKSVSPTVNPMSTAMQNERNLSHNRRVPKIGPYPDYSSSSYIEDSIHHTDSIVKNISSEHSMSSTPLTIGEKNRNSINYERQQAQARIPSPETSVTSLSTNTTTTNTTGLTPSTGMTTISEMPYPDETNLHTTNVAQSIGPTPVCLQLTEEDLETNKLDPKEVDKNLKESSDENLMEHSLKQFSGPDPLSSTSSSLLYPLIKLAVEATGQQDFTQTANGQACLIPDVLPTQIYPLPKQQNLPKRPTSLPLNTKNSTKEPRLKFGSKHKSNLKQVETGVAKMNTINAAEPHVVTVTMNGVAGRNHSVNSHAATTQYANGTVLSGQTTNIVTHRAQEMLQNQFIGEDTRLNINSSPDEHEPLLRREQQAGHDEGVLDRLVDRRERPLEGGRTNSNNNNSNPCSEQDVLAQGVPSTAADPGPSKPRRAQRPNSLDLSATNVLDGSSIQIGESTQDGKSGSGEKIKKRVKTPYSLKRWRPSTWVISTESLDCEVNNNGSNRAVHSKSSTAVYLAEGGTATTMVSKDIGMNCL
The conditions noted are these: BMPR2; 1 uM.
Procedure: as §1

The target of assay [6] is various enzymes (Homo sapiens, UniProt P19525). The conditions noted are these: PRKR; 1 uM.
Sequence of various enzymes (Homo sapiens, UniProt P19525) (P19525 whole entry): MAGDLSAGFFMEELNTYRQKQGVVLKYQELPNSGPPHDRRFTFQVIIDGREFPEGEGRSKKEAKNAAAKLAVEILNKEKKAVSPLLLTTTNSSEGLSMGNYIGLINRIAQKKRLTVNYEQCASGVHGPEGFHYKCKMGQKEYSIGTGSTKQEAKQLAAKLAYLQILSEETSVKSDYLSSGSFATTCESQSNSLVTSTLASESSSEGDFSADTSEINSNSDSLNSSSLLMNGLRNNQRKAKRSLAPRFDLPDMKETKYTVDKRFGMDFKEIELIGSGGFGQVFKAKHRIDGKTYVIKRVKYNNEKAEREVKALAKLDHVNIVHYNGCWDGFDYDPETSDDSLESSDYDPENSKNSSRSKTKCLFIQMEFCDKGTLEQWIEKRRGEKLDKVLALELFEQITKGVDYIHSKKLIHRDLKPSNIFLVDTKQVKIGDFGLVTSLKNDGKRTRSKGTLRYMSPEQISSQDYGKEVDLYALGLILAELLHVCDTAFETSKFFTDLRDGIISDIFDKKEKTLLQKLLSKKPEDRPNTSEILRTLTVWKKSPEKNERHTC
Procedure: as §1
Assay [7] deals with various enzymes (Homo sapiens, UniProt P00533, DEL746-750). The conditions noted are these: EGFR(E746-A750del); 1 uM.
Procedure: as §1
Assay [8] has as its target T2, various enzymes (Homo sapiens, UniProt O60285).
T2 sequence (O60285 1-661): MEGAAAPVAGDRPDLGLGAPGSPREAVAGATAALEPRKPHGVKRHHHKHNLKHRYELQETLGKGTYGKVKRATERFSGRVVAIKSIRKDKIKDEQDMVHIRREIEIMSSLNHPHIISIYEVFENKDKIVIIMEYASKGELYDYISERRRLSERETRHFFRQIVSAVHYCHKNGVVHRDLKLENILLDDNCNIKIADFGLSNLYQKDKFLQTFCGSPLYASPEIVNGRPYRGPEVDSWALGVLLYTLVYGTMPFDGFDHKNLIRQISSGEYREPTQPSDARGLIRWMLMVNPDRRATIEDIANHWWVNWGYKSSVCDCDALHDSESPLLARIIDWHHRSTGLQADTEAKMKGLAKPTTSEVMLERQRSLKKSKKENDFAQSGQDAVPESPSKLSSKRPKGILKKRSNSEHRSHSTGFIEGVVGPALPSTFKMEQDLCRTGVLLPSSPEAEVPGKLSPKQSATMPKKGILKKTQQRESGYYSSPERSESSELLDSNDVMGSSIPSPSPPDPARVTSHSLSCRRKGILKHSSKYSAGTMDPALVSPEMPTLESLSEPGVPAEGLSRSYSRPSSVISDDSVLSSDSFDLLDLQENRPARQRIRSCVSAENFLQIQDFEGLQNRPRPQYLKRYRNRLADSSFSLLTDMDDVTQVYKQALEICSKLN
The note with it: ARK5; 1 uM.
Procedure: as §1

Assay [9] addresses various enzymes (Homo sapiens, UniProt P43405). The conditions noted are these: SYK; 1 uM.
Procedure: as §1
In assay [10] the target is various enzymes (Homo sapiens, UniProt Q9BWU1). The note with it: CDK11; 1 uM.
Sequence of various enzymes (Homo sapiens, UniProt Q9BWU1) (Q9BWU1 whole entry): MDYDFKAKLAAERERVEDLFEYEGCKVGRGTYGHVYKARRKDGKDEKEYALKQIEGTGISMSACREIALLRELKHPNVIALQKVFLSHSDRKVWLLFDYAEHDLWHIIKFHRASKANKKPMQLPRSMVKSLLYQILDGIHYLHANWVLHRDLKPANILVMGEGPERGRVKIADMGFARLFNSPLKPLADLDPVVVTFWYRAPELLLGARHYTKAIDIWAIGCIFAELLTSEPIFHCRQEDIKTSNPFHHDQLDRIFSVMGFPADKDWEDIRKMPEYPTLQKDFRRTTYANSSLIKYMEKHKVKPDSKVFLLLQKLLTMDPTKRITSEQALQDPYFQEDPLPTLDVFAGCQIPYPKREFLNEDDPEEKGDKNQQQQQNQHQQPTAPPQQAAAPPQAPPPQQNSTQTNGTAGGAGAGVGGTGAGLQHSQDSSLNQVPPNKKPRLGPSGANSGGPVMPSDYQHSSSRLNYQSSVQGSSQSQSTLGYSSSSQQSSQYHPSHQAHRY
Procedure: as §1
The target in assay [11] is various enzymes (Homo sapiens, UniProt Q13705). The note with it: ACVR2B; 1 uM.
Sequence of various enzymes (Homo sapiens, UniProt Q13705) (Q13705 19-512): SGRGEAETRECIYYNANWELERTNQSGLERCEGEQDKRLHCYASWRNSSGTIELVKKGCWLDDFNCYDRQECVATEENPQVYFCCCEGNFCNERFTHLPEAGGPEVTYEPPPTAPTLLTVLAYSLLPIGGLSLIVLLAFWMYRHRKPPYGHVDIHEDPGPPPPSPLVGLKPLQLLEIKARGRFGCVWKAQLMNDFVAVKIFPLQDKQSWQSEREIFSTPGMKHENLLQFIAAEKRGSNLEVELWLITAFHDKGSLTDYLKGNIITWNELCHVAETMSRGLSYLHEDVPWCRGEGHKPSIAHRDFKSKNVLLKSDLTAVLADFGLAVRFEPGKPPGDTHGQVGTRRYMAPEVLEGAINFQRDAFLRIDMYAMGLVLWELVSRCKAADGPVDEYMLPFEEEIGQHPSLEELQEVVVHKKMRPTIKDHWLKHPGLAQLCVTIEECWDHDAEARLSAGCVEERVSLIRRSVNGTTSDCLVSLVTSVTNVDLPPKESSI
Procedure: as §1
Assay [12] deals with various enzymes (Homo sapiens, UniProt Q9Y6M4). The note with it: CSNK1G3; 1 uM.
Sequence of various enzymes (Homo sapiens, UniProt Q9Y6M4) (Q9Y6M4 whole entry): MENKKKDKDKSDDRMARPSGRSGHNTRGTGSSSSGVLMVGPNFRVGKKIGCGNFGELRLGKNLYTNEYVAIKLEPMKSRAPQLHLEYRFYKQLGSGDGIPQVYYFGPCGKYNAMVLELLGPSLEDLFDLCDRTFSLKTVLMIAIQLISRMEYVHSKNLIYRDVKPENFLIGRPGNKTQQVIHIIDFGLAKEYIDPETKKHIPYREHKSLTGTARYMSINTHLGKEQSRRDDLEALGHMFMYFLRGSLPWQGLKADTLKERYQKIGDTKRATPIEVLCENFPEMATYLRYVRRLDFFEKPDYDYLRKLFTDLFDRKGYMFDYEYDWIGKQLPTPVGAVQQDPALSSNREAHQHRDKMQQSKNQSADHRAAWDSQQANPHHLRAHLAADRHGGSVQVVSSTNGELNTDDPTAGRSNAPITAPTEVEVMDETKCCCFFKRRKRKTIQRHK
Procedure: as §1
For assay [13], the target named is various enzymes (Homo sapiens, UniProt P78368). The note with it: CSNK1G2; 1 uM.
Sequence of various enzymes (Homo sapiens, UniProt P78368) (P78368 whole entry): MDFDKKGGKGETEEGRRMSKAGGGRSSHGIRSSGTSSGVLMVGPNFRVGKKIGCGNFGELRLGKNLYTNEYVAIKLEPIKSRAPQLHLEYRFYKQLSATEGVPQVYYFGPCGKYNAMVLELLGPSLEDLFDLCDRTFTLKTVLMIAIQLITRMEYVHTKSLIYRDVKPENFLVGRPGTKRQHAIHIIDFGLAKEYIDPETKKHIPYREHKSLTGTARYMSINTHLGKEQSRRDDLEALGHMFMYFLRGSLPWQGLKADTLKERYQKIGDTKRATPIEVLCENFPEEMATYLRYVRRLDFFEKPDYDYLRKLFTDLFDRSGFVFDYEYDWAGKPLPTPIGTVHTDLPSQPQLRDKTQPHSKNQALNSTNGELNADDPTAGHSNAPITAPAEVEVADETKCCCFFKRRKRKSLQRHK
Procedure: as §1

Like-named read-outs stand apart in the source and are kept apart here.

For `CN1Cc2nn(C)cc2-c2cnc3[nH]cc(c3c2)-c2cnn(c2)CCCC1=O` [Compound 41, (Z)-31,5-dimethyl-11H,21H,31H-5-aza-2(3,5)-pyrrolo[2,3-b]pyridina-1(4,1),3(4,3)-dipyrazolacyclononaphan-6-one], the Ambit profiling at various enzymes [1] (EGFR(T790M), 1 uM) was determined as 41; on various enzymes [2], 100; on various enzymes [3] (EGFR(G719S), 1 uM) it was 100; at various enzymes [4] it was 1.1; at various enzymes [5], 4.1; at various enzymes [6], 9.2. Further, the Ambit profiling is given as 100 on various enzymes [7]; 8.9 on various enzymes [8]; 70 at various enzymes [9]; 84 at various enzymes [10]; 65 on various enzymes [11]; 100 at various enzymes [12]. For the same compound, the Ambit profiling on various enzymes [13] is 100.

For the compound `CN1Cc2nn(C)c(C#N)c2-c2cnc3[nH]cc(c3c2)-c2cn(nc2C(F)(F)F)CCCC1=O` [Compound 48, (Z)-31,5-dimethyl-6-oxo-13-(trifluoromethyl)-11H,21H,31H-5-aza-2(3,5)-pyrrolo[2,3-b]pyridina-1(4,1),3(4,3)-dipyrazolacyclononaphane-35-carbonitrile], the Ambit profiling on various enzymes [1] amounted to 80; at various enzymes [2] it was 77; on various enzymes [3], 71; on various enzymes [4], 8.1; on various enzymes [5], 85; at various enzymes [6] it was 100. Moreover, the Ambit profiling was 35 at various enzymes [7]; 100 on various enzymes [8]; 68 at various enzymes [9]; 100 at various enzymes [10]; 98 at various enzymes [11]; 98 on various enzymes [12]. At various enzymes [13], the Ambit profiling was found to be 100.
